pIC50: −log10 of the molar value.
Test system: 994946-033-R-J1-PDC complex spheroid viability
Assay: Anticancer human tumor 994946-033-R-J1-PDC patient-derived melanoma cell line growth inhibition [POLQ]
Conditions: for pIC50: curve of first compound; for viability, T/C: stronger effect = lower value
Experimental: Multicellular complex tumor spheroid response to Polymerase (POL) inhibitors (novobiocin, ART-558, RP6685) in combination with a variety of drugs and investigational agents in selected tumor cell lines
The POL inhibitors (novobiocin, ART-558, and RP6685) were evaluated both individually and in combination with standard of care and investigational anticancer small molecules within a complex spheroid model of solid tumors. . Complex spheroids include a stromal component modeled by human endothelial cells (HUVEC) and fibroblasts modeled by human mesenchymal stem cells (MSCs). The concentration ranges selected for each drug and investigational agent were based upon clinically achievable concentrations if the clinical Cmax of the agent was known.
Compounds. The drugs and investigational agents: novobiocin (NSC847541), ART-558 (NSC835418), RP-6685 (NSC848927), peposertib (NSC802822), ceralasertib (NSC780249), elimusertib (NSC800525), camonsertib (NSC841442), AZD-1390 (NSC803789), olaparib (NSC753686), talazoparib (NSC767125), rucaparib (NSC756644), sotorasib (NSC818433), MRTX-1133 (NSC836407), SN-38 (NSC673596), topotecan (NSC609699), epotoside (NSC141540), doxorubicin (NSC123127), gemcitabine (NSC613327), 5-fluorouracil (NSC19893), paclitaxel (NSC125973), vemurafenib (NSC761431), MSA-2 (NSC828583), SN-011 (NSC837082), adavosertib (NSC754352), prexasertib (NSC758257), carboplatin (NSC241240) and oxaliplatin (NSC266046), were obtained from the National Cancer Institute (NCI) Developmental Therapeutics Program Chemical Repository (21). The FDA-approved anticancer drug set is available from the Developmental Therapeutics Program at https://dtp.cancer.gov/organization/dscb/obtaining/. […] The stock solutions were prepared in dimethyl sulfoxide (DMSO, Sigma-Aldrich, St. Louis, MO, cat. D2650), except for the platinum compounds which were prepared in saline (Quality Biological, Gaithersburg, MD, cat. 114-055-101), at 800-fold the tested concentration and stored at -70 degrees C prior to their use. All drugs and investigational agents were tested over a range starting from a high concentration at or near the clinical Cmax and decreasing in half-log increments. If the clinical Cmax for an agent had not been determined, the highest concentration tested was 10 microM, except for SN-38, which was tested at a high concentration of 1 microM.
Cell Culture. All cells were maintained in an incubator at 37 degrees C and 5% CO2 with 95% humidity. The PDC lines were cultured according to standard operating procedures established by the NCI PDMR (https://pdmr.cancer.gov). Table 3 of the manuscript, lists the cell lines along with the number of the three cell types plated to form the mct-spheroids and media for tumor cell growth. After thawing, all PDC lines, except 997537-175-T-J1-PDC and 415267-285-R-J2-PDC, were cultured in Matrigel-coated flasks prepared with a working solution of 1X Ham's F-12 nutrient mix, without supplementation (Thermo Fisher Scientific, cat. 11765054), 100 U/mL penicillin-streptomycin (Thermo Fisher Scientific, cat. 15140122), and 2.5% Matrigel (Corning Inc., Corning, NY, cat. 354248) for the first three passages. The two PDC lines 997537-175-T-J1-PDC and 415267-285-R-J2-PDC were cultured on uncoated flasks. The 857933-349-R-J2-PDC line was cultured in 6C/Colon 1B media containing advanced DMEM/F-12 (Thermo Fisher Scientific, cat. 12634028), 10 mM HEPES (Thermo Fisher Scientific, cat. 15630080), 1X GlutaMAX supplement (Thermo Fisher Scientific, cat. 35050061), 0.1 mg/mL primocin (InvivoGen, San Diego, CA, cat. ant-pm-2), 10% defined fetal bovine serum, heat inactivated (HyClone Laboratories Inc., Logan, UT, cat. SH30070.03HI), 50% L-WRN conditioned media (ATCC, cat. CRL-3276), 1.25 mM N-Acetyl-L-cysteine (Sigma-Aldrich, cat. A9165), 10 mM nicotinamide (Sigma-Aldrich, cat. N0636), 1X B-27 supplement (Thermo Fisher Scientific, cat. 17504044), 1X N-2 supplement (Thermo Fisher Scientific, cat. […]

[1] = second compound 0.0316 µM, first compound 0.0316 µM
[2] = second compound 0.0316 µM, first compound 0.1 µM
[3] = second compound 0.0316 µM, first compound 0.316 µM
[4] = second compound 0.0316 µM, first compound 1 µM
[5] = second compound 0.0316 µM, first compound 3.16 µM
[6] = second compound 0.0316 µM, first compound 10 µM
[7] = second compound 0.1 µM, first compound 0.0316 µM
[8] = second compound 0.1 µM, first compound 0.1 µM
[9] = second compound 0.1 µM, first compound 0.316 µM
[10] = second compound 0.1 µM, first compound 1 µM
[11] = second compound 0.1 µM, first compound 3.16 µM
[12] = second compound 0.1 µM, first compound 10 µM
[13] = second compound 0.316 µM, first compound 0.0316 µM
[14] = second compound 0.316 µM, first compound 0.1 µM
[15] = second compound 0.316 µM, first compound 0.316 µM
[16] = second compound 0.316 µM, first compound 1 µM
[17] = second compound 0.316 µM, first compound 3.16 µM
[18] = second compound 0.316 µM, first compound 10 µM
[19] = second compound 1 µM, first compound 0.0316 µM
[20] = second compound 1 µM, first compound 0.1 µM
[21] = second compound 1 µM, first compound 0.316 µM
[22] = second compound 1 µM, first compound 1 µM
[23] = second compound 1 µM, first compound 3.16 µM
[24] = second compound 1 µM, first compound 10 µM
[25] = second compound 3.16 µM, first compound 0.0316 µM
[26] = second compound 3.16 µM, first compound 0.1 µM
[27] = second compound 3.16 µM, first compound 0.316 µM
[28] = second compound 3.16 µM, first compound 1 µM
[29] = second compound 3.16 µM, first compound 3.16 µM
[30] = second compound 3.16 µM, first compound 10 µM
[31] = second compound 10 µM, first compound 0.0316 µM
[32] = second compound 10 µM, first compound 0.1 µM
[33] = second compound 10 µM, first compound 0.316 µM
[34] = second compound 10 µM, first compound 1 µM
[35] = second compound 10 µM, first compound 3.16 µM
[36] = second compound 10 µM, first compound 10 µM
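Note: spheroids exposed to drugs for 7 days.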
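Throughout, for viability, T/C: 100% = DMSO vehicle treated spheroids.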

O=C(Nc1ccc(O)c(NS(=O)(=O)c2ccc(F)cc2)c1)c1ccc(-c2ccccc2)cc1 + Cc1cccc(N(C)C(=O)C2C(O)CCN2c2nc(C)cc(C(F)(F)F)c2C#N)c1
pIC50 (second compound 0.0316 µM): 5.03 | pIC50 (second compound 0.1 µM): < 5.00 | pIC50 (second compound 0.316 µM): 5.19 | pIC50 (second compound 1 µM): 5.25 | pIC50 (second compound 3.16 µM): 5.23 | pIC50 (second compound 10 µM): 5.53 | viability, T/C [1]: 90.8% | viability, T/C [2]: 98% | viability, T/C [3]: 112% | viability, T/C [4]: 126% | viability, T/C [5]: 92.9% | viability, T/C [6]: 47.3% | viability, T/C [7]: 108% | viability, T/C [8]: 87.9% | viability, T/C [9]: 118% | viability, T/C [10]: 65% | viability, T/C [11]: 61.3% | viability, T/C [12]: 39.4% | viability, T/C [13]: 84.1% | viability, T/C [14]: 109% | viability, T/C [15]: 91.4% | viability, T/C [16]: 121% | viability, T/C [17]: 74.8% | viability, T/C [18]: 35.2% | viability, T/C [19]: 87.7% | viability, T/C [20]: 95.4% | viability, T/C [21]: 81.2% | viability, T/C [22]: 105% | viability, T/C [23]: 61.9% | viability, T/C [24]: 37.9% | viability, T/C [25]: 73.5% | viability, T/C [26]: 59.4% | viability, T/C [27]: 90.2% | viability, T/C [28]: 73% | viability, T/C [29]: 81.3% | viability, T/C [30]: 28.3% | viability, T/C [31]: 85.5% | viability, T/C [32]: 81.3% | viability, T/C [33]: 95.8% | viability, T/C [34]: 81.3% | viability, T/C [35]: 48.4% | viability, T/C [36]: 26.8%

COc1cccc2c1C(=O)c1c(O)c3c(c(O)c1C2=O)CC(O)(C(=O)CO)CC3OC1CC(N)C(O)C(C)O1 (stereo unspecified) + Nc1ccc(C#CCN(C(=O)Cc2ncc(C(F)(F)F)cc2C(F)(F)F)c2ccc(F)cc2)nn1
pIC50 (second compound 0.0316 µM): > 7.50 | pIC50 (second compound 0.1 µM): > 7.50 | pIC50 (second compound 0.316 µM): > 7.50 | pIC50 (second compound 1 µM): > 7.50 | pIC50 (second compound 3.16 µM): > 7.50 | pIC50 (second compound 10 µM): > 7.50 | viability, T/C [1]: 39.1% | viability, T/C [2]: 8.96% | viability, T/C [3]: 4.51% | viability, T/C [4]: 0.95% | viability, T/C [5]: 0.91% | viability, T/C [6]: 1.45% | viability, T/C [7]: 47.5% | viability, T/C [8]: 11.3% | viability, T/C [9]: 7.5% | viability, T/C [10]: 1.92% | viability, T/C [11]: 1.44% | viability, T/C [12]: 1.04% | viability, T/C [13]: 38% | viability, T/C [14]: 13.6% | viability, T/C [15]: 5.83% | viability, T/C [16]: 0.57% | viability, T/C [17]: 1.8% | viability, T/C [18]: 1.29% | viability, T/C [19]: 47.9% | viability, T/C [20]: 10% | viability, T/C [21]: 4.77% | viability, T/C [22]: 0.51% | viability, T/C [23]: 1.35% | viability, T/C [24]: 0.99% | viability, T/C [25]: 32.4% | viability, T/C [26]: 13.9% | viability, T/C [27]: 4.86% | viability, T/C [28]: 1.22% | viability, T/C [29]: 1.11% | viability, T/C [30]: 1% | viability, T/C [31]: 35.3% | viability, T/C [32]: 14.7% | viability, T/C [33]: 3.59% | viability, T/C [34]: 1.41% | viability, T/C [35]: 0.94% | viability, T/C [36]: 1.07%

Nc1ccn(C2OC(CO)C(O)C2(F)F)c(=O)n1 (stereo unspecified) + Nc1ccc(C#CCN(C(=O)Cc2ncc(C(F)(F)F)cc2C(F)(F)F)c2ccc(F)cc2)nn1
pIC50 (second compound 0.0316 µM): > 7.50 | pIC50 (second compound 0.1 µM): > 7.50 | pIC50 (second compound 0.316 µM): > 7.50 | pIC50 (second compound 1 µM): > 7.50 | pIC50 (second compound 3.16 µM): 7.45 | pIC50 (second compound 10 µM): 6.92 | viability, T/C [1]: 19.8% | viability, T/C [2]: 9.8% | viability, T/C [3]: 13.9% | viability, T/C [4]: 6.8% | viability, T/C [5]: 9.12% | viability, T/C [6]: 4.73% | viability, T/C [7]: 13.4% | viability, T/C [8]: 6.85% | viability, T/C [9]: 7.22% | viability, T/C [10]: 8.61% | viability, T/C [11]: 6.71% | viability, T/C [12]: 2.46% | viability, T/C [13]: 26.9% | viability, T/C [14]: 10.2% | viability, T/C [15]: 6.41% | viability, T/C [16]: 6.86% | viability, T/C [17]: 5.84% | viability, T/C [18]: 3.65% | viability, T/C [19]: 49.5% | viability, T/C [20]: 11.8% | viability, T/C [21]: 7.84% | viability, T/C [22]: 6.62% | viability, T/C [23]: 5.64% | viability, T/C [24]: 2.7% | viability, T/C [25]: 53.2% | viability, T/C [26]: 22.4% | viability, T/C [27]: 8.85% | viability, T/C [28]: 9.68% | viability, T/C [29]: 8.92% | viability, T/C [30]: 3.34% | viability, T/C [31]: 75.5% | viability, T/C [32]: 56.2% | viability, T/C [33]: 17.5% | viability, T/C [34]: 7.83% | viability, T/C [35]: 11.2% | viability, T/C [36]: 6.31%
